≈ marks a conversion by molar mass, not a printed value. Read-outs that look alike come from different tables or passages of the source.
Tests used:
Type in all cases: cell-based
[1] = tested on: Mycobacterium smegmatis DSM 43061; assay: MIC for rapidly growing mycobacteria by broth microdilution; details: Mycolicibacterium smegmatis, DSM43061
Procedure: (§1) For rapidly growing mycobacteria, the MIC determination was carried out following the method of broth microdilution described by Swenson [cf. J. M. Swenson, C. Thornberry, U. A. Silcox, Rapidly growing mycobacteria. Testing of suceptibility to 34 antimicrobial agents by broth microdilution. Antimicrobial Agents and Chemotherapy Vol. 22, 186-192 (1982)]. A deviation from this was the brain-heart extract medium treated with 0.1% by volume of Tween 80.
(§2) The mycobacterial strains used were obtained from the DSM (German Collection of Microorganisms, Braunschweig). They were incubated at 37° C. in a humid chamber.
(§3) The MICs were read off after 2-4 days when the preparation-free controls had become cloudy as a result of growth.

[2] = tested on: Mycobacterium smegmatis DSM 43465; assay: as above; details: Mycolicibacterium smegmatis, DSM43465
Procedure: as §1, §2, §3

Staph. 133 = assay: MIC by serial dilution on Iso-Sensitest agar; details: 37° C., about 20 hours
Procedure: (§4) The minimum inhibitory concentrations (MICs) were determined by serial dilution tests on Iso-Sensitest agar (Oxoid). For each test substance, a number of agar plates were prepared which contained decreasing concentrations of the active compound. The agar plates were inoculates using a multipoint inoculator (Denley). For inoculation, overnight cultures of the pathogenic organisms were used which had previously been diluted such that each inoculation point contained about 10^4 colony-forming particles. The inoculated agar plates were incubated at 37° C., and the microorganism growth was read off after about 20 hours. The MICs (μg/ml) indicates the lowest active compound concentration at which no growth could be detected using the naked eye.

E. coli Neumann = assay: MIC by serial dilution on Iso-Sensitest agar; details: Escherichia coli
Procedure: as §4

Staph. 48N = assay: MIC by serial dilution on Iso-Sensitest agar; details: 37° C., about 20 hours
Procedure: as §4

Staph. 25701 = assay: MIC by serial dilution on Iso-Sensitest agar; details: 37° C., about 20 hours
Procedure: as §4

Klebs. 57 USA = assay: MIC by serial dilution on Iso-Sensitest agar
Procedure: as §4

Psdm. Bonn = assay: MIC by serial dilution on Iso-Sensitest agar
Procedure: as §4

Staph. 9TV = assay: MIC by serial dilution on Iso-Sensitest agar
Procedure: as §4

[3] = DSM 43061, brain-heart extract medium with 0.1% Tween 80, 37° C., 2-4 days, read-out: MIC
[4] = DSM 43465, brain-heart extract medium with 0.1% Tween 80, 37° C., 2-4 days, read-out: MIC
[5] = E. coli Neumann, 37° C., about 20 hours, read-out: MIC
[6] = Klebs. 57 USA, 37° C., about 20 hours, read-out: MIC
[7] = Psdm. Bonn, 37° C., about 20 hours, read-out: MIC
[8] = Staph. 9TV, 37° C., about 20 hours, read-out: MIC

| MIC (E. coli Neumann; [5]) | MIC (Klebs. 57 USA; [6]) | MIC (Psdm. Bonn; [7]) | SMILES | MIC [1, 3] | MIC [2, 4] | MIC (Staph. 133) | MIC (Staph. 48N) | MIC (Staph. 25701) | MIC (Staph. 9TV; [8]) | MIC [1] | MIC [2] | MIC (Staph. 9TV; 20 h) | MIC (E. coli Neumann; 20 h) | MIC (Klebs. 57 USA; 20 h) | MIC (Psdm. Bonn; 20 h) |
| --- | --- | --- | --- | --- | --- | --- | --- | --- | --- | --- | --- | --- | --- | --- | --- |
| > 64 µg/mL | > 64 µg/mL | > 64 µg/mL | COC(=O)NCC1CN(c2cnc3c(c2)oc(=O)n3C)C(=O)O1 (racemic) [Example 13] | 8 µg/mL (≈ 24.8 µM) | 8 µg/mL (≈ 24.8 µM) | 8 µg/mL (≈ 24.8 µM) | 8 µg/mL (≈ 24.8 µM) | 8 µg/mL (≈ 24.8 µM) | 4 µg/mL (≈ 12.4 µM) |  |  |  |  |  |  |
|  |  |  | CC(=O)NCC1CN(c2cnc3c(c2)oc(=O)n3C)C(=O)O1 (stereo not shown) [Example 10, 5-Acetylaminomethyl-3-(3-methyloxazolo[4,5-b]-pyridin-2(3H)-on-6yl)oxazolidin-2-one] | 4 µg/mL (≈ 13.1 µM) | 4 µg/mL (≈ 13.1 µM) |  | 8 µg/mL (≈ 26.1 µM) | 8 µg/mL (≈ 26.1 µM) | 4 µg/mL (≈ 13.1 µM) |  |  |  | > 64 µg/mL | > 64 µg/mL | > 64 µg/mL |
|  |  |  | [H]/N=C(/N)N[C@H]1[C@H](O)[C@@H](O)[C@H](O[C@@H]2O[C@@H](C)[C@](O)(C=O)[C@H]2O[C@@H]2O[C@@H](CO)[C@H](O)[C@@H](O)[C@@H]2NC)[C@@H](N/C(N)=N\[H])[C@@H]1O [Streptomycin, reference compound] |  |  |  |  |  |  | 4 µg/mL (≈ 6.88 µM) | 4 µg/mL (≈ 6.88 µM) |  |  |  |  |
|  |  |  | NNC(=O)c1ccncc1 [Isoniazide, reference compound] | 4 µg/mL (≈ 29.2 µM) | 1 µg/mL (≈ 7.29 µM) |  |  |  |  |  |  |  |  |  |  |
| > 64 µg/mL | > 64 µg/mL | > 64 µg/mL | CC(=O)NC[C@H]1CN(c2ccc3nc(C)sc3n2)C(=O)O1 [Example 14] |  |  | 4 µg/mL (≈ 13.1 µM) | 8 µg/mL (≈ 26.1 µM) | 4 µg/mL (≈ 13.1 µM) | 2 µg/mL (≈ 6.53 µM) |  |  |  |  |  |  |
|  |  |  | Cn1c(=O)oc2cc(N3CC(CNC(=O)C4CC4)OC3=O)cnc21 (racemic) [Example 11] | 8 µg/mL (≈ 24.1 µM) | 4 µg/mL (≈ 12 µM) | 8 µg/mL (≈ 24.1 µM) | 8 µg/mL (≈ 24.1 µM) | 8 µg/mL (≈ 24.1 µM) | 4 µg/mL (≈ 12 µM) |  |  |  | > 64 µg/mL | > 64 µg/mL | > 64 µg/mL |

| SMILES | MIC (E. coli Neumann; [5]) | MIC (Klebs. 57 USA; [6]) | MIC (Psdm. Bonn; [7]) | MIC [1, 3] | MIC [2, 4] | MIC (Staph. 133) | MIC (Staph. 48N) | MIC (Staph. 25701) | MIC (Staph. 9TV; [8]) | MIC [1] | MIC [2] | MIC (Staph. 9TV; 20 h) | MIC (E. coli Neumann; 20 h) | MIC (Klebs. 57 USA; 20 h) | MIC (Psdm. Bonn; 20 h) |
| --- | --- | --- | --- | --- | --- | --- | --- | --- | --- | --- | --- | --- | --- | --- | --- |
| CCC(=O)NCC1CN(c2cnc3c(c2)oc(=O)n3C)C(=O)O1 (racemic) [Example 12] | > 64 µg/mL | > 64 µg/mL | > 64 µg/mL |  |  | 8 µg/mL (≈ 25 µM) | 8 µg/mL (≈ 25 µM) | 8 µg/mL (≈ 25 µM) |  | 4 µg/mL (≈ 12.5 µM) | 4 µg/mL (≈ 12.5 µM) | 4 µg/mL (≈ 12.5 µM) |  |  |  |
